These results are taken from patent EP0298135A1, “Phenylalanine derivative and proteinase inhibitor” (Okamoto, Shosuke, priority 1987, dated 1989).

Common to all, as to type: biochemical
Assay [1] deals with T1, human plasmin (Homo sapiens, UniProt P00747). As to the kind of experiment: Antiplasmin activity: inhibition of fibrin decomposition. The conditions noted are these: Table 2; concentration at which fibrin dissolution time is extended twice, pH 7.4, 37°C; read-out: Plasmin Fibrin (concentration I₅₀). The procedure: (i) Determination of inhibition activity on fibrin decomposition
An inhibitor sample is dissolved in a 0.l8 M borate-physiological salt buffer solution (pH = 7.4) to bring the total volume to 600 µl. To this buffer solution, 200 µl of a 0.2% bovine fibrinogen, l00 µl of a 0.3 casein unit/ml human plasmin solution, and l00 µl of a 50 unit/ml bovine thrombin solution, all dissolved in the above-mentioned buffer, are added at a temperature of 37°C in a constant temperature bath. The dissolution time of the fibrin mass formed above is then determined.

Assay [2] has as its target T2, bovine trypsin (Bos taurus, UniProt P00760).
T2 sequence (P00760 24-246): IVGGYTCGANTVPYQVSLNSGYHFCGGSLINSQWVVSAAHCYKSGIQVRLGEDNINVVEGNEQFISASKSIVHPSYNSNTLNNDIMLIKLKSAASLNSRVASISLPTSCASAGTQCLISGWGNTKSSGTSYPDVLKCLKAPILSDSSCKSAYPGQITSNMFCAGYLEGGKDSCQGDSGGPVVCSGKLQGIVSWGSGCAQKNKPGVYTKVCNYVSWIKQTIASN
As to the kind of experiment: Antitrypsin activity: inhibition of S-2238 decomposition. The conditions noted are these: Table 2; substrate S-2238, pH 8.1, 37°C; read-out: Trypsin S-2238 (concentration I₅₀). The method, then:
Determination of inhibition activity against S-2238 decomposition An inhibitor sample is dissolved in a 0.05 M Tris-imidazole buffer solution (pH = 8.l) and l25 µl of a l mM S-2238 solution is added to bring the total volume to l.20 ml. The mixture is incubated at a temperature of 37°C for 5 minutes in a constant temperature bath. To this mixture, 0.05 ml of bovine trypsin is added and the absorbance, at 405 nm, of the p-nitroaniline formed per minute is determined at a temperature of 37°C by using the so-called initial velocity method. Thus, the concentration I₅₀ (µmol) of the inhibitor sample, at which the absorbance is one half (i.e., l/2) of that obtained in the absence of the inhibitor sample, is determined.

Assay [3] has as its target T3, bovine thrombin (Bos taurus, UniProt P00735). Nature of the assay: Antithrombin activity: inhibition of fibrin formation from fibrinogen. The method, then: (i) Determination of inhibition activity against fibrin formation
An inhibitor sample is dissolved in a 0.l8 M borate-physiological salt buffer solution (pH = 7.4) to bring the total volume to 500 µl. To this solution, 400 µl of a 0.2% bovine fibrinogen solution and l00 µl of a 4 unit/ml bovine thrombin solution are added at a temperature of 37°C in a constant temperature bath. Thus, a coagulation time is determined. The inhibitor concentration I₅₀ (µmol), at which the coagulation time obtained in the absence of the inhibitor is extended twice, is determined.

For assay [4], the target named is human urokinase (Homo sapiens, UniProt P00749). As to the kind of experiment: Antiurokinase activity: inhibition of S-2444 decomposition. The conditions noted are these: Table 2; substrate S-2444, pH 8.8, 37°C; read-out: Urokinase S-2444 (concentration I₅₀). The method, then:
Determination of inhibition activity for S-2444 decomposition
An inhibitor sample is dissolved in a 0.05 M Tris-hydrochloric acid buffer solution (pH = 8.8) to bring the total volume to 400 µl. To this solution, 50 µl of a l mM S-2444 solution is added and the mixture is incubated at a temperature of 37°C for 5 minutes in a constant temperature bath. Then 50 µl of a 500 unit/ml human urokinase is added and the mixture is incubated at a temperature of 37°C for 5 minutes. Thereafter, 50 µl of 50% acetic acid is added to terminate the reaction. The absorbance of the p-nitroaniline formed in the reaction mixture is measured at 405 nm. Thus, the concentration I₅₀ (µmol) of the inhibitor sample, at which the absorbance is one half (i.e., l/2) of that obtained in the absence of the inhibitor sample, is determined.

In assay [5] the target is human plasma kallikrein (Homo sapiens, UniProt P03952). Nature of the assay: Anti-plasma kallikrein activity: inhibition of S-2302 decomposition. The conditions noted are these: Table 2; substrate S-2302, pH 7.8, 37°C; read-out: Plasma Kallikrein S-2302 (concentration I₅₀). The method, then:
An inhibitor sample is dissolved in a 0.05 M Tris-hydrochloric acid buffer solution (pH = 7.8) to bring the total volume to 400 µl. […] Then, 50 µl of a 0.l2 unit/ml human plasma kallikrein is added and the mixture is incubated at a temperature of 37°C for 5 minutes. Thereafter, 50 µl of 50% acetic acid is added to terminate the reaction. […] Thus, the concentration I₅₀ (µmol) of the inhibitor sample, at which the absorbance is one half (i.e., l/2) of that obtained in the absence of the inhibitor sample, is determined.

Assay [6] has as its target T1, human plasmin. As to the kind of experiment: Antiplasmin activity: inhibition of S-2251 decomposition. The conditions noted are these: Table 2; substrate S-2251, pH 7.4, 37°C; read-out: Plasmin S-2251 (concentration I₅₀). The procedure: (ii) Determination of inhibition activity on S-225l decomposition
An inhibitor sample is dissolved in a 0.05 M Tris-hydrochloric acid buffer solution (pH = 7.4) to bring the total volume to 400 µl. To this solution, 50 µl of a 3 mM S-225l solution is added and the mixture is incubated at a temperature of 37°C for 5 minutes in a constant temperature bath. Then 50 µl of a 0.2 casein unit/ml human plasmin is added and the mixture is incubated at a temperature of 37°C for 4 minutes. Thereafter, the reaction is stopped by adding 50 µl of 50% acetic acid.
Thus, the concentration I₅₀ (µmol) of the inhibitor sample, at which the absorbance is one half (i.e., l/2) of that obtained in the absence of the inhibitor, is determined.

For assay [7], the target named is T3, bovine thrombin. As to the kind of experiment: Antithrombin activity: inhibition of S-2238 decomposition. The method, then: (ii) Determination of inhibition activity on S-2238 decomposition
An inhibitor sample is dissolved in a 0.05 M Tris-hydrochloric acid buffer solution (pH = 8.3) to bring the a total volume to 400 µl. To this solution, 50 µl of a 0.2 mM S-2238 solution is added and the mixture is incubated at a temperature of 37°C for 5 minutes in a constant temperature bath. Then 50 µl of a 0.2 unit/ml bovine thrombin solution is added thereto and the absorbance, at 405 nm, of the p-nitroaniline formed per minute is determined at a temperature of 37°C by using the so-called initial velocity method. Thus, the concentration I₅₀ (µmol) of the inhibitor sample, at which the absorbance is one half (i.e., l/2) of that obtained in the absence of the inhibitor sample, is determined.

Counter-ions that a name gives are not always drawn. Where only a bound is given, the exact number is not on record here.

T1 sequence (P00747 581-810 limits assumed): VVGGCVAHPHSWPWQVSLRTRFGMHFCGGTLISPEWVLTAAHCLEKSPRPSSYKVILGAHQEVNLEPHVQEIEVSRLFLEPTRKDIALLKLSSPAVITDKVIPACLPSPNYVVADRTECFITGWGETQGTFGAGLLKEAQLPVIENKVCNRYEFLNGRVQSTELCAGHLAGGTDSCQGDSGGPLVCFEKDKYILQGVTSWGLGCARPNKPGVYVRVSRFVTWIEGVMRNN
T1 sequence (P00747 97-580 partner limits assumed): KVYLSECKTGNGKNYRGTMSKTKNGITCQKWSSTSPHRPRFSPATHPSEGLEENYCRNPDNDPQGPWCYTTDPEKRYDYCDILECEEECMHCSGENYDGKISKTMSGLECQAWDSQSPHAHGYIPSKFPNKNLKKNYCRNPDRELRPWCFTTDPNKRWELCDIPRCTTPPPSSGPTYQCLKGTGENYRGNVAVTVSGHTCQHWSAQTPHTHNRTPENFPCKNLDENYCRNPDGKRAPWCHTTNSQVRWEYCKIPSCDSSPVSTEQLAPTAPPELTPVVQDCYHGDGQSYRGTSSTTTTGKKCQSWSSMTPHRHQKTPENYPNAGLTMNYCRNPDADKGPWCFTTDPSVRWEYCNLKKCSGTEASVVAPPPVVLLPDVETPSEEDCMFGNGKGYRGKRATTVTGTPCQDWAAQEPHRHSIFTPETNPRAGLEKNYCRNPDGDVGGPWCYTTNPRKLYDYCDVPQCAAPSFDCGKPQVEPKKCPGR
human plasma kallikrein, sequence (P03952 391-638 limits assumed): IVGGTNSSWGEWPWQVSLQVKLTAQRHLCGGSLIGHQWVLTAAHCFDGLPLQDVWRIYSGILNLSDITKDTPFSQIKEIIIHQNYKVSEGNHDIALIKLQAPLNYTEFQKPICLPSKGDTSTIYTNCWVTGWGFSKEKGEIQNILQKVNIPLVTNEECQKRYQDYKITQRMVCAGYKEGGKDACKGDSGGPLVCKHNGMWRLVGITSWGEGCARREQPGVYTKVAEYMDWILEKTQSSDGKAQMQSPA
human plasma kallikrein, sequence (P03952 20-390 partner limits assumed): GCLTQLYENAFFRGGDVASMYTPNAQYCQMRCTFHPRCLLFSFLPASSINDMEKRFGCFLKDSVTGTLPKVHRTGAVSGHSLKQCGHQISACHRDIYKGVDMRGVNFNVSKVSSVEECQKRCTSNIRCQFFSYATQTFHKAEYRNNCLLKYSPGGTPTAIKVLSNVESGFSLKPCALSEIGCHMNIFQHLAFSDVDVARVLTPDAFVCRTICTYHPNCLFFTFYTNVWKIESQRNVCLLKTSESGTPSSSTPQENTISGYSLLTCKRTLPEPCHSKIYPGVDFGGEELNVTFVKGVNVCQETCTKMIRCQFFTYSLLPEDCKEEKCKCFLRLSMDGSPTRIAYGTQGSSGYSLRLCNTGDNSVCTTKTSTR

As for “N-(4-guanidinobenzoyl)-L-phenylalanine 4-cis/trans-methylcyclohexylamide hydrochloride [Compound No. 20]”, the IC50 is 73 µM in assay [1]; 15 µM in assay [2]; more than 100 µM in assay [3] (Table 2, concentration at which coagulation time is extended twice, bovine fibrinogen, pH 7.4, 37°C, read-out: Thrombin Fibrinogen (concentration I₅₀)); 310 µM in assay [4]; 45 µM in assay [5]; 140 µM in assay [6].

Take `NCCCCCC(=O)N[C@@H](Cc1ccccc1)C(=O)Nc1ccc(C(=O)c2ccccc2)cc1` [compound 4]: the IC50 in assay [2] was more than 200 µM; in assay [6], 39 µM.

For `N=C(N)NC[C@H]1CC[C@H](C(=O)N[C@@H](Cc2ccc([N+](=O)[O-])cc2)C(=O)Nc2ccc(C(=O)c3ccccc3)cc2)CC1` [compound 31, N-(trans-4-guanidinomethylcyclohexylcarbonyl)-4-nitro-L-phenylalanine 4-benzoylanilide methane sulfonate], the IC50 in assay [4], in assay [5] and in assay [6] was more than 100 µM throughout.

On to `COc1ccc(NC(=O)[C@H](Cc2ccccc2)NC(=O)c2ccc(CCN)cc2)cn1` [compound 10, N-[4-(2-aminoethyl)benzoyl]-L-phenylalanine 3-(6-methoxypyridyl)amide dihydrochloride], for which the IC50 was 970 µM in assay [1], 85 µM in assay [5] and 830 µM in assay [6].

In the case of `CN(Cc1ccncc1)C(=O)[C@H](Cc1ccccc1)NC(=O)c1ccc(NC(=N)N)cc1` [compound 19], the IC50 was more than 1000 µM in assay [1], more than 1000 µM in assay [3], 1000 µM in assay [5] and more than 1000 µM in assay [6].

On to `Cc1ccc(NC(=O)[C@H](Cc2ccc(OCc3ccccc3)cc2)NC(=O)c2ccc(NC(=N)N)cc2)cc1C` [compound 24], for which the IC50 in assay [1] worked out at 16 µM; in assay [2], 9.1 µM; in assay [4], 240 µM; in assay [5], 5.7 µM; in assay [6], 21 µM.

As to `COc1ccc(NC(=O)[C@H](Cc2ccc(OCc3ccccc3)cc2)NC(=O)c2ccc(NC(=N)N)cc2)cn1` [compound 25], the IC50 in assay [1] is 48 µM; in assay [2], 17 µM; in assay [3], more than 100 µM; in assay [5] it was 12 µM; in assay [6], 160 µM.

Take `CN(Cc1ccccc1)C(=O)[C@H](Cc1ccc(OCc2ccccc2)cc1)NC(=O)c1ccc(NC(=N)N)cc1` [compound 28]: the results for the IC50 in assay [2], in assay [5] and in assay [6] were 110 µM, 170 µM and 140 µM, respectively.

Consider `N=C(N)NCCCC(=O)N[C@@H](Cc1ccc([N+](=O)[O-])cc1)C(=O)Nc1ccc(C(=O)c2ccccc2)cc1` [compound 29], for which the IC50 in assay [1] amounted to 82 µM; in assay [2], 17 µM; in assay [5], 56 µM; in assay [6] it was 120 µM.

Take `NCCc1ccc(C(=O)N[C@@H](Cc2ccccc2)C(=O)Nc2ccc(C(=O)c3ccccc3)cc2)cc1` [compound 9]: the IC50 in assay [2] was determined as 16 µM; in assay [4], 100 µM; in assay [5] it was 31 µM; in assay [6] it was 30 µM.

Turning to `CC(=O)c1ccc(NC(=O)[C@H](Cc2ccc(OCc3ccccc3)cc2)NC(=O)c2ccc(C(=N)N)cc2)cc1` [compound 12, N-(4-amidinobenzoyl)-4-benzyloxy-L-phenylalanine 4-acetylanilide hydroiodic acid], the IC50 in assay [1] was 0.98 µM; in assay [2], 0.75 µM; in assay [4], 4 µM; in assay [5] it was 0.3 µM; in assay [6] it was 2.2 µM.

Turning to `Cc1ccc(NC(=O)[C@H](Cc2ccccc2)NC(=O)c2ccc(NC(=N)N)cc2)cc1` [compound 13, N-(4-guanidinobenzoyl)-L-phenylalanine 4-methylanilide hydrochloride], the IC50 is more than 200 µM in assay [1]; 1.3 µM in assay [2]; 420 µM in assay [4]; 4.2 µM in assay [5]; more than 1000 µM in assay [6].

Consider `CN(Cc1ccncc1)C(=O)[C@H](Cc1ccccc1)NC(=O)CCCCCN` [Compound No. 6, N-(6-aminocaproyl)-L-phenylalanine N-methyl-(4-pycoryl)amide dihydrochloride], for which the IC50 was more than 1000 µM in assay [1]; more than 500 µM in assay [7]; more than 500 µM in assay [4]; more than 1000 µM in assay [5]; more than 1000 µM in assay [6].

As to `CC(=O)c1ccc(NC(=O)[C@H](Cc2ccccc2)NC(=O)c2ccc(C(=N)N)cc2)cc1` [compound 11, N-(4-amidinobenzoyl)-L-phenylalanine 4-acetylanilide hydroiodic acid], the IC50 in assay [1] is 21 µM; in assay [2], 3.6 µM; in assay [4] it was 13 µM; in assay [5], 0.8 µM; in assay [6], 23 µM.

On to `NCCCC(=O)N[C@@H](Cc1ccccc1)C(=O)Nc1ccc(C(=O)c2ccccc2)cc1` [compound 1], for which the IC50 in assay [7] was more than 200 µM; in assay [6] it was 23 µM.

For `N=C(N)Nc1ccc(C(=O)N[C@@H](Cc2ccccc2)C(=O)Nc2ccc(C(=O)c3ccccc3)cc2)cc1` [compound 16], the figures for the IC50 in assay [2], in assay [4] and in assay [5] were 1.5 µM, 40 µM and 3.6 µM, respectively.

As for `N=C(N)Nc1ccc(C(=O)N[C@@H](Cc2ccc([N+](=O)[O-])cc2)C(=O)Nc2ccc(C(=O)c3ccccc3)cc2)cc1` [Compound No. 23, N-(4-guanidinobenzoyl)-4-nitro-L-phenylalaninine 4-benzoylanilide methanesulfonate], the IC50 came out at 0.43 µM in assay [2], 11 µM in assay [4], 11 µM in assay [5] and 89 µM in assay [6].
